Results taken from patent US11802127B2, “3,4-dihydro-2,7-naphthyridine-1,6(2H,7H)-diones as MEK inhibitors” (Pfizer Inc., priority 2021, dated 2023).

Assays:
[1] = tested on: ERK1/2(Thr202/Tyr204) phosphorylation (MEK-dependent) in A375 cells; assay: Cellular Phospho-p44/42 MAPK (Erk1/2) (Thr202/Tyr204) Assay; assay type: cell-based; details: Homo sapiens, A-375, 1-hour incubation, pERK1/2 (Thr202/Tyr204) In-Cell Western normalized to GAPDH
How it was run: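 A375 cells exposed 1 h to 10-point 1:3 dilutions (top 20–1 μM, 0.5% DMSO), then fixed and stained for pERK1/2 (Thr202/Tyr204) by In-Cell Western. Signal normalized to GAPDH per well; DMSO and 1 μM reference inhibitor define 0 and 100% inhibition.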

[2] = target: T1, BCRP (hBCRP) (Homo sapiens, UniProt Q9UNQ0); assay: Efflux ratio in BCRP transfected MDCKII canine P-gp knockout cells; assay type: in vitro ADME; details: Papp(B−A)/Papp(A−B), read-out: Efflux ratio MDCKII-hBCRP knock-in,canine pg-P KO
T1 construct: expressed in transfected cells; host or cells: MDCKII (canine kidney) cells, canine P-gp knockout, transfected with BCRP
T1 sequence (Q9UNQ0 1-655): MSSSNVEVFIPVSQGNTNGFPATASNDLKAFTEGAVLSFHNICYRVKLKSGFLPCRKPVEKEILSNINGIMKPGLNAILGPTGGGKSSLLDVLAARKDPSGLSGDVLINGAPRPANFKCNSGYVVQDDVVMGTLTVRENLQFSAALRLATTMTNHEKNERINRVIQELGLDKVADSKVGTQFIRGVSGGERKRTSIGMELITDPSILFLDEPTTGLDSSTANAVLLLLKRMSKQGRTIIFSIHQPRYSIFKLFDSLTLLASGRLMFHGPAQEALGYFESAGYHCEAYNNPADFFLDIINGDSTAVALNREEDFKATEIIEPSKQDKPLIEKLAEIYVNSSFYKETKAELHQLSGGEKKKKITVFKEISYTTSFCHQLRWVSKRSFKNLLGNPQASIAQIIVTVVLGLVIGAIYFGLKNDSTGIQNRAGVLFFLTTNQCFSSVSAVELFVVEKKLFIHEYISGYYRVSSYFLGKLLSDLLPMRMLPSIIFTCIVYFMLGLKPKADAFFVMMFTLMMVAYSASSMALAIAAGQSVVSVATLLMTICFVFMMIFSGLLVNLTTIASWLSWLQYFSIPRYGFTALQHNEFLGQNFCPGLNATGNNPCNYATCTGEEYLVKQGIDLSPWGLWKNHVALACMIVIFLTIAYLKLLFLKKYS
How it was run: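 Test article at 1 μM final (1% organic) in A→B and B→A directions across MDCKII P-gp knockout monolayers expressing BCRP, 2 h at 37° C., triplicate; lucifer yellow checked monolayer integrity. Concentrations by LC-MS/MS against labetalol internal standard; efflux ratio = Papp(B−A)/Papp(A−B).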

Structure (SMILES) | efflux ratio at 2 h, 1 μM [2] | IC50 [1]
CSc1ccc(Nc2c3c(cc(=O)n2C)CCN(OCCO)C3=O)c(F)c1 [Example 6, 8-((2-fluoro-4-(methylthio)phenyl)amino)-2-(2-hydroxyethoxy)-7-methyl-3,4-dihydro-2,7-naphthyridine-1,6(2H,7H)-dione] | 5.5 | 8 nM
CCc1ccc(Nc2c3c(cc(=O)n2C)CCN(OCCO)C3=O)c(F)c1 [Example 14, 8-((4-ethyl-2-fluorophenyl)amino)-2-(2-hydroxyethoxy)-7-methyl-3,4-dihydro-2,7-naphthyridine-1,6(2H,7H)-dione] | 3.4 | 15 nM
Cn1c(Nc2ccc(OC(F)F)cc2F)c2c(cc1=O)CCN(OCCO)C2=O [Example 22, 8-((4-(difluoromethoxy)-2-fluorophenyl)amino)-2-(2-hydroxyethoxy)-7-methyl-3,4-dihydro-2,7-naphthyridine-1,6(2H,7H)-dione] | 9 | 21 nM

Continued, in another order:

efflux ratio at 2 h, 1 μM [2] | Structure (SMILES) | IC50 [1]
9.6 | Cn1c(Nc2ccc(Br)cc2F)c2c(cc1=O)CCN(OCCO)C2=O [Example 7, 8-((4-bromo-2-fluorophenyl)amino)-2-(2-hydroxyethoxy)-7-methyl-3,4-dihydro-2,7-naphthyridine-1,6(2H,7H)-dione] | 23 nM
3.4 | Cn1c(Nc2ccc(I)cc2F)c2c(cc1=O)CCN(OCCO)C2=O [Example 8, 8-((2-fluoro-4-iodophenol)amino)-2-(2-hydroxyethoxy)-7-methyl-3,4-dihydro-2,7-naphthyridine-1,6(2H,7H)-dione] | 1 nM
3.5 | Cc1c2c(c(Nc3ccc(Br)cc3F)n(C)c1=O)C(=O)N(OCCO)CC2 [Example 36, 8-((4-bromo-2-fluorophenyl)amino)-2-(2-hydroxyethoxy)-5,7-dimethyl-3,4-dihydro-2,7-naphthyridine-1,6(2H,7H)-dione] | 30 nM
